Tested on: Plasmodium berghei
Test: Luciferase/luciferin-expressing antifolate-resistant parasites were used to infect a culture of HepG2 cells that were pre-incubated with compounds. Infected hepatocytes emit light due to the luciferase reaction. Assay results are presented as the percent inhibition of light emission compared to control. […]
Type: functional
Settings: sporozoite; for IC90: read-out: LUCIFERASE INFECTION ASSAY - IC90
[1] = PBLUC_HILL_SLOPE 22.1, PBLUC_R_SQUARED 0.617, read-out: LUCIFERASE INFECTION ASSAY - IC50

| SMILES | IC90 [µM] | also measured |
| --- | --- | --- |
| NC(c1csc(NC(=O)Nc2cccc(C(F)(F)F)c2)n1)C1CCCCC1 (stereo not given) | 6.65 | IC50 (PBLUC_HILL_SLOPE 23.3, PBLUC_R_SQUARED 0.126, read-out: LUCIFERASE INFECTION ASSAY - IC50): 6.05 µM |
| Cc1ccc(-c2nn(-c3ccccc3)cc2/C=C/C(=O)NC2CCN(Cc3ccccc3)CC2)cc1 | 9.38 | IC50 (PBLUC_HILL_SLOPE 22.5, 12.9, PBLUC_R_SQUARED 0.0358, 0.549, read-out: LUCIFERASE INFECTION ASSAY - IC50): 8.22 µM |
| CC(C)(C)c1cc(C(=O)Nc2nc(C(N)c3ccccc3Cl)cs2)n(Cc2ccccc2)n1 (stereo not given) | 6.37 | IC50 (PBLUC_HILL_SLOPE 22.9, PBLUC_R_SQUARED 0.71, read-out: LUCIFERASE INFECTION ASSAY - IC50): 5.79 µM |
| CN1\C(=C/C=N/N=C/C2=C(N3CCOCC3)C(=C\c3ccc([N+](=O)[O-])cc3)/CC2)C(C)(C)c2ccccc21 | 9.46 | IC50 (PBLUC_HILL_SLOPE 22.4, PBLUC_R_SQUARED 0.296, read-out: LUCIFERASE INFECTION ASSAY - IC50): 8.58 µM |
| O=C(OCc1cc(=O)oc2cc(O)ccc12)c1ccc(Cl)c(S(=O)(=O)N2CCCCCC2)c1 | > 10 | IC50 (PBLUC_HILL_SLOPE 24.9, PBLUC_R_SQUARED 0.0553, read-out: LUCIFERASE INFECTION ASSAY - IC50): 9.36 µM |
| Cc1nc(C(C)(C)C)nc2sc(C(=O)N(C)CC(=O)Nc3cccc(F)c3)c(C)c12 | 3.71 | IC50 (PBLUC_HILL_SLOPE 21.5, PBLUC_R_SQUARED 0.514, read-out: LUCIFERASE INFECTION ASSAY - IC50): 3.35 µM |
| c1nc(Nc2ccc(C34CC5CC(CC(C5)C3)C4)cc2)c2ccsc2n1 | 0.884 | IC50 (PBLUC_HILL_SLOPE 24.2, PBLUC_R_SQUARED 0.39, read-out: LUCIFERASE INFECTION ASSAY - IC50): 0.808 µM |
| COc1cc(OC)c(NC(=O)c2cc3ccccc3cc2OCC(=O)NCc2ccco2)cc1Cl | > 10 | IC50 [1]: 9.17 µM |
| Cc1ccc(O)c(/C=N/NC(=S)NC(C)(C)C)c1 | > 12.4 | IC50 (PBLUC_HILL_SLOPE 24.9, PBLUC_R_SQUARED 0.247, read-out: LUCIFERASE INFECTION ASSAY - IC50): 11.8 µM |
| CC(Oc1ccc2[nH]c3ccccc3c(=O)c2c1)C(=O)NC(=O)NC12CC3CC(CC(C3)C1)C2 (stereo not given) | 3.1 | IC50 (PBLUC_HILL_SLOPE 24.7, PBLUC_R_SQUARED 0.64, read-out: LUCIFERASE INFECTION ASSAY - IC50): 2.84 µM |
| CN1CCCN(c2ncnc3cc(-c4ccc(Cl)cc4)sc23)CC1 | > 10 | IC50 (PBLUC_HILL_SLOPE 23.2, PBLUC_R_SQUARED 0.558, read-out: LUCIFERASE INFECTION ASSAY - IC50): 9.79 µM |
| O=C(Nc1ccn(-c2ccccc2)n1)c1cc(-c2ccccc2)nc2ccccc12 | > 10 | IC50 (PBLUC_HILL_SLOPE 22.3, 9.62, PBLUC_R_SQUARED 0.228, 0.621, read-out: LUCIFERASE INFECTION ASSAY - IC50): 9.46 µM |
| Cc1c(C(=O)Nc2ccccc2O)cnn1-c1cccc(C(F)(F)F)c1 | 3.64 | IC50 (PBLUC_HILL_SLOPE 22.3, PBLUC_R_SQUARED 0.482, read-out: LUCIFERASE INFECTION ASSAY - IC50): 3.29 µM |
| Cc1nn(-c2ccccn2)c2c1C(c1ccccc1Cl)C1=C(N2)c2ccccc2C1=O (stereo not given) | > 10 | IC50 [1]: 9.17 µM |
| O=c1c(Cl)c(Cl)cnn1-c1ccc(S(=O)(=O)NCCc2ccc3c(c2)OCCO3)cc1 | > 10 | IC50 (PBLUC_HILL_SLOPE 21.5, PBLUC_R_SQUARED 0.289, read-out: LUCIFERASE INFECTION ASSAY - IC50): 9.64 µM |
| Cc1ccc2sc(N(Cc3ccccc3)C(=O)CN3CCC(C(N)=O)CC3)nc2c1C | 4.19 | IC50 (PBLUC_HILL_SLOPE 23.7, PBLUC_R_SQUARED 0.191, read-out: LUCIFERASE INFECTION ASSAY - IC50): 3.82 µM |
| CC(Nc1ccnc2cc(Cl)ccc12)c1ccccc1Cl (stereo not given) | 3.6 | IC50 (PBLUC_HILL_SLOPE 22.7, PBLUC_R_SQUARED 0.0753, read-out: LUCIFERASE INFECTION ASSAY - IC50): 3.27 µM |
| COc1ccc(-c2cnc3cnc(-c4ccc(C(=O)NC5CC5)cc4)cn23)cn1 | > 8.56 | IC50 (PBLUC_HILL_SLOPE 21.9, PBLUC_R_SQUARED 0.538, read-out: LUCIFERASE INFECTION ASSAY - IC50): 7.8 µM |
| COc1ccc(C(=O)/C=C/c2cccc3cccnc23)cc1Br | > 10 | IC50 (PBLUC_HILL_SLOPE 24.4, PBLUC_R_SQUARED 0.237, read-out: LUCIFERASE INFECTION ASSAY - IC50): > 10 µM |
| Cc1ccc(-c2nc3c(s2)CN(C(=O)c2ccco2)CC3)cc1 | 3.19 | IC50 (PBLUC_HILL_SLOPE 23.5, PBLUC_R_SQUARED 0.61, read-out: LUCIFERASE INFECTION ASSAY - IC50): 2.9 µM |

| SMILES | IC90 [µM] | also measured |
| --- | --- | --- |
| COc1ccccc1Oc1ccc(NC(C)C(=O)N2CCCC2)cc1 (stereo not given) | > 10 | IC50 (PBLUC_HILL_SLOPE 21.7, PBLUC_R_SQUARED 0.137, read-out: LUCIFERASE INFECTION ASSAY - IC50): 9.85 µM |
| O=C(Cc1cn(-c2ccccc2)nc1-c1ccc(Cl)cc1)NCc1ccc(Cn2ccnc2)cc1 | > 10 | IC50 (PBLUC_HILL_SLOPE 23, PBLUC_R_SQUARED 0.395, read-out: LUCIFERASE INFECTION ASSAY - IC50): 9.71 µM |
| CC(C)(C)c1ccc(-c2cnc3cnc(-c4ccc(C(=O)NCCO)cc4)cn23)cc1 | > 7.96 | IC50 (PBLUC_HILL_SLOPE 23.2, PBLUC_R_SQUARED 0.508, read-out: LUCIFERASE INFECTION ASSAY - IC50): 7.27 µM |
| CC(Nc1ccc(Oc2cccc(F)c2)cc1)C(=O)N1CCNC1=O (stereo not given) | 1.08 | IC50 (PBLUC_HILL_SLOPE 25, PBLUC_R_SQUARED 0.491, read-out: LUCIFERASE INFECTION ASSAY - IC50): 0.991 µM |
| O=C(c1cccc2ccccc12)N(c1ccc(F)cc1)c1nc2ccccc2s1 | > 10 | IC50 (PBLUC_HILL_SLOPE 22.2, PBLUC_R_SQUARED 0.211, read-out: LUCIFERASE INFECTION ASSAY - IC50): 9.18 µM |
| CCOc1ccc2nc(N/N=C3/C(=O)N(c4ccccc4)N=C3C)sc2c1 | 9.42 | IC50 (PBLUC_HILL_SLOPE 22.7, PBLUC_R_SQUARED 0.625, read-out: LUCIFERASE INFECTION ASSAY - IC50): 8.55 µM |
| Cc1c(C(=O)OC(C(=O)c2ccccc2)c2ccccc2)sc2ncn(C)c(=O)c12 (stereo not given) | 8.68 | IC50 (PBLUC_HILL_SLOPE 24.2, PBLUC_R_SQUARED 0.462, read-out: LUCIFERASE INFECTION ASSAY - IC50): 7.93 µM |
| Cn1c(SCC#N)nnc1-c1ccc(C(C)(C)C)cc1 | 1.34 | IC50 (PBLUC_HILL_SLOPE 23.6, PBLUC_R_SQUARED 0.364, read-out: LUCIFERASE INFECTION ASSAY - IC50): 1.22 µM |
| C=S(NC(=O)c1ccc(Cl)cc1)c1sc(C(=O)OCC)c2c1C(=O)CCC2 (stereo not given) | > 7.78 | IC50 (PBLUC_HILL_SLOPE 23.8, PBLUC_R_SQUARED 0.121, read-out: LUCIFERASE INFECTION ASSAY - IC50): > 7.78 µM |
| CN(C)c1cccc(-c2cnc(N)c(-c3ccc(O)cc3)c2)c1 | > 10.8 | IC50 (PBLUC_HILL_SLOPE 24.2, PBLUC_R_SQUARED 0.305, read-out: LUCIFERASE INFECTION ASSAY - IC50): 10.5 µM |
| CCC1CCc2sc(C(=O)Nc3ccccc3O)cc2C1 (stereo not given) | > 10 | IC50 (PBLUC_HILL_SLOPE 24.2, PBLUC_R_SQUARED 0.273, read-out: LUCIFERASE INFECTION ASSAY - IC50): 9.71 µM |
| Cc1csc(NC(=O)c2ccc3[nH]c4c(c3c2)CC(C)CC4)n1 (stereo not given) | > 10 | IC50 (PBLUC_HILL_SLOPE 21.4, PBLUC_R_SQUARED 0.315, read-out: LUCIFERASE INFECTION ASSAY - IC50): 9.45 µM |
| Cc1ccc(Cn2cc(/C=C/C(=O)Nc3ccn(C)n3)c(-c3ccccc3)n2)cc1 | 5.35 | IC50 (PBLUC_HILL_SLOPE 23.0, 1.63, PBLUC_R_SQUARED 0.221, 0.716, read-out: LUCIFERASE INFECTION ASSAY - IC50): 5.32 µM |
| COc1ccc([N+](=O)[O-])cc1C(=O)NCCOc1ccc2ccccc2c1 | > 10 | IC50 (PBLUC_HILL_SLOPE 24.5, PBLUC_R_SQUARED 0.535, read-out: LUCIFERASE INFECTION ASSAY - IC50): 9.5 µM |
| CNc1snc(C)c1C(=O)OCc1coc(-c2cccs2)n1 | 0.0184 | IC50 (PBLUC_HILL_SLOPE 23.3, PBLUC_R_SQUARED 0.377, read-out: LUCIFERASE INFECTION ASSAY - IC50): 0.0168 µM |
| CCc1c(C(=O)/C=C/c2cc(OC)c(O)c(OC)c2)oc2ccc(C)cc12 | 7.96 | IC50 (PBLUC_HILL_SLOPE 25.7, 54.1, PBLUC_R_SQUARED 0.301, 0.609, read-out: LUCIFERASE INFECTION ASSAY - IC50): 7.44 µM |
| O=C(CSCc1cccs1)Nc1nc(-c2ccccn2)cs1 | 9.38 | IC50 (PBLUC_HILL_SLOPE 22, PBLUC_R_SQUARED 0.337, read-out: LUCIFERASE INFECTION ASSAY - IC50): 8.49 µM |
| COc1ccc(OC)c(NC(=O)Nc2ccc(OC(F)(F)F)cc2)c1 | > 9.26 | IC50 (PBLUC_HILL_SLOPE 22.3, PBLUC_R_SQUARED 0.0229, read-out: LUCIFERASE INFECTION ASSAY - IC50): 9.07 µM |
| Cn1c(Nc2ccccc2)nc2cnc(-c3ccc(Cl)cc3)cc21 | > 10 | IC50 (PBLUC_HILL_SLOPE 23.8, PBLUC_R_SQUARED 0.319, read-out: LUCIFERASE INFECTION ASSAY - IC50): 9.73 µM |
| O=C(NC1CCN(Cc2ccccc2)CC1)c1oc2ccccc2c1COc1ccccc1 | > 10 | IC50 (PBLUC_HILL_SLOPE 25.1, PBLUC_R_SQUARED 0.225, read-out: LUCIFERASE INFECTION ASSAY - IC50): > 10 µM |

Source: ChEMBL document CHEMBL4483862, “Open-source discovery of chemical leads for next-generation chemoprotective antimalarials” (2018)
